Entries after “also recorded” stand apart in the source; their conditions may differ. Read-outs that look alike come from different tables or passages of the source.
What was measured:
[1] = test system: murine gastrin releasing peptide receptor (mGRP-R); assay: Radiolabeled bombesin binding after adenovirus-polylysine-mediated transfection of GRPr; conditions: AdpL, versus uninfected controls
Source text: Next, gene mediated expression of receptors was applied in the context of inducing expression of a receptor that could be targeted with a radiolabeled peptide and thus employed the gene encoding the murine gastrin releasing peptide receptor (mGRP-R). The first technique utilized the methodology of an adenovirus-polylysine-mediated transfection (AdpL) to accomplish transient gene expression of mGRP-R in human lung cancer cells.

[2] = native somatostatin; cited from earlier work
[3] = test system: SKOV3.ip1 tumors expressing mGRPr; assay: Biodistribution and pharmacokinetics of radiolabeled bombesin analogue in mice bearing i.p. SKOV3.ip1 tumors infected with AdCMVGRPr; format: in vivo, human SKOV3.ip1 tumors in athymic nude mice
Procedure: All biodistribution studies were performed in female Balb/c athymic nude mice obtained at 4-5 weeks of age from Frederick Research Laboratory (Frederick, Md.). The peptide mIP-Des-Met-bombesin(7-13)NH2 was synthesized using solid phase peptide synthesis at the UAB Comprehensive Cancer Center Peptide Synthesis and Analysis Shared Facility and has been described elsewhere. Mice were injected i.p. with 2×10^7 SKOV3.ip1 human ovarian carcinoma cells. Five days following cell inoculation, mice were injected i.p. with 1×10^9 pfu of a recombinant adenoviral vector expressing mGRPr. Animals were then injected i.p. 48 hours later with 2 μCi of [^125 I]-mIP bombesin. Mice were sacrificed at 0.5, 2, 5, 15, 30 min and 1, 4, 8, 12 and 24 hours following peptide injection (n=4-10/group) and the following organs were dissected: blood, heart, lungs, liver, stomach, small intestine, spleen, kidney, skin, bone, muscle, uterus, peritoneal lining and thyroid. In addition, tumor nodules were removed from each mouse. All organs, and tumors were weighed and the activity counted in a gamma counter. The % ID/g for each tissue was calculated except for the thyroid in which only the % ID was determined.
Descriptive statistics were calculated to examine the distribution and variation of time concentration of radiolabeled antibody and peptide, and tissue to blood ratio data (means and standard deviations). Means at each specific time point were calculated from multiple mice data for both tissue concentration and tissue to blood ratios. Mean concentration data (% ID/g) over time was used for pharmacokinetical modeling. The pharmacokinetical parameters were estimated by using the NLIN procedure of Statistical Analysis System programs. Selection of models was based on comparison of Akaike's Information Criterion, the minimization of the model's mean squared error and standard error of the estimated model parameters, and the graphical diagnostics of the model fit.
Four different pharmacokinetic models, including one and two compartment elimination models along with one and two-compartment models with an absorption phase were required to fit the time concentration curves for the peptide. […] For each of these, the elimination t1/2 was calculated along with Cmax and AUC. A one-compartment model with an absorption phase was determined to be the best model for abdominal lining and muscle data. For each of these, the elimination t1/2 values for each compartment were calculated along with Cmax and AUC. A two-compartment model with an absorption phase was the best model for blood, kidney, and small intestine data. For each of these, elimination t1/2 values for each compartment and the absorption t1/2 value was calculated along with Cmax, Tmax and AUC.

mGRPr expressing cells = assay: Internalization and intracellular retention in mGRPr expressing cells; format: cell-based, murine
mGRPr = assay: Binding to murine GRP receptor
murine IL-4 receptor = conditions: cited from earlier work
IL-4 receptor = assay: Radiolabeled IL-4 binding after adenovirus-polylysine-DNA transduction of IL-4 receptor; conditions: adenovirus-polylysine-DNA conjugates
SSTR2 = conditions: cited from earlier work
human IL-4 receptor = conditions: murine ligand; cited from earlier work

## ^125 I-labeled bombesin: ^125 I-labeled bombesin
[1]
  radiolabeled bombesin binding to transduced cells: specific binding; also recorded: successfully demonstrated

## C[C@H](N)C(=O)NCC(=O)N[C@H]1CSSC[C@@H](C(=O)O)NC(=O)[C@H](CO)NC(=O)[C@H]([C@@H](C)O)NC(=O)[C@H](Cc2ccccc2)NC(=O)[C@H]([C@@H](C)O)NC(=O)[C@H](CCCCN)NC(=O)[C@H](Cc2c[nH]c3ccccc23)NC(=O)[C@H](Cc2ccccc2)NC(=O)[C@H](Cc2ccccc2)NC(=O)[C@H](CC(N)=O)NC(=O)[C@H](CCCCN)NC1=O [Somatostatin]
[2]
  plasma half-life: minutes

## [^125 I]-mIP-Des-Met^14 -bombesin(7-13)NH2 [[^125 I]-mIP-bombesin]
[3]; 30 sec after injection, 0.5 min
  concentration in tumor (highest): 33.6±18.2 % ID/g
[3]; 30 sec, versus e21
  tumor to blood ratio relative to antibody: 24.8 fold
[3]; 4 hours post injection
  tumor localization at 4 hours post injection versus [^125 I]-Tyr-bombesin: much greater
[3]; 24 hours after injection
  concentration in tumor: 2.5±2.8 % ID/g
[3]; 24 hours, versus e21
  tumor to blood ratio relative to antibody: 15.4 fold
[3]; abdominal lining
  AUC: 160.9 percent ID × h/g
  Cmax: 47.7 percent ID/g
  t1/2α: 0.1 h
  t1/2β: 6.5 h
[3]; blood
  AUC: 8.0 percent ID × h/g
  Cmax: 1.5 percent ID/g
  Tmax: 0.6 h
  t1/2α: 0.8 h
  t1/2β: 6.7 h
[3]; bone
  AUC: 12.8 percent ID × h/g
  Cmax: 1.1 percent ID/g
  t1/2β: 7.9 h
[3]; heart
  AUC: 8.3 percent ID × h/g
  Cmax: 0.9 percent ID/g
  t1/2β: 6.6 h
[3]; kidney
  AUC: 44.8 percent ID × h/g
  Cmax: 15.3 percent ID/g
  Tmax: 0.5 h
  t1/2α: 0.4 h
  t1/2β: 4.7 h
[3]; level after drop from initial peak and rise
  tumor to blood ratio: about 50
[3]; liver
  AUC: 49.2 percent ID × h/g
  Cmax: 9.8 percent ID/g
  t1/2β: 3.5 h
[3]; lung
  AUC: 7.6 percent ID × h/g
  Cmax: 1.3 percent ID/g
  Tmax: 0.05 h
  t1/2β: 4.1 h
[3]; muscle
  AUC: 12.4 percent ID × h/g
  Cmax: 3.6 percent ID/g
  t1/2α: 0.6 h
  t1/2β: 7.7 h
[3]; skin
  AUC: 5.9 percent ID × h/g
  Cmax: 1.0 percent ID/g
  Tmax: 0.4 h
  t1/2β: 3.7 h
[3]; small intestine
  AUC: 112 percent ID × h/g
  Cmax: 41.7 percent ID/g
  Tmax: 0.3 h
  t1/2α: 0.6 h
  t1/2β: 8.3 h
[3]; spleen
  AUC: 71.7 percent ID × h/g
  Cmax: 10.9 percent ID/g
  t1/2β: 4.6 h
[3]; stomach
  AUC: 172.3 percent ID × h/g
  Cmax: 10.2 percent ID/g
  Tmax: 0.05 h
  t1/2β: 11.7 h
[3]; tumor
  AUC: 193.1 percent ID × h/g
  Cmax: 25.6 percent ID/g
  t1/2β (clearance half-life): 5.2 h
[3]; uterus
  AUC: 182.8 percent ID × h/g
  Cmax: 29.2 percent ID/g
  t1/2β: 4.3 h
[3]; versus e21
  peak tumor to blood ratio, bombesin analogue relative to antibody: 12.6 fold
mGRPr expressing cells
  internalization versus [^125 I]-Tyr-bombesin: higher internalization
  intracellular retention versus [^125 I]-Tyr-bombesin: longer intracellular retention
mGRPr expressing cells; listed as modified seven amino acid analogue of bombesin
  intracellular retention versus [^125 I]-Tyr-bombesin: longer retention time within cells
mGRPr
  binding to mGRPr: high affinity binding

## human IL-4: human IL-4
Murine IL-4 receptor; human IL-4
  binding to the murine receptor: does not exhibit binding

## ^125 I-labeled IL-4: ^125 I-labeled IL-4
IL-4 receptor
  radiolabeled IL-4 binding to transduced cells: specific binding
Murine IL-4 receptor; ^125 I-IL-4, transduced COS-7 cells
  Ka: 10^9 -10^10 M^-1

## C[C@@H](O)[C@@H]1NC(=O)[C@H](CCCCN)NC(=O)[C@@H](Cc2c[nH]c3ccccc23)NC(=O)[C@H](Cc2ccccc2)NC(=O)[C@@H](NC(=O)[C@H](N)Cc2ccccc2)CSSC[C@@H](C(=O)N[C@H](CO)[C@@H](C)O)NC1=O [Octreotide]
SSTR2
  binding to SSTR2: binds with high affinity

## Murine IL-4: glycoprotein with an approximate molecular weight of 19 kD
Human IL-4 receptor
  binding to the human receptor: does not exhibit binding
